Test results taken from paper PMC6476306 (Biochemistry, 2017).

Biological target: T1, S. aureus DnaG primase CTD (Staphylococcus aureus, UniProt P63964)
T1 sequence (P63964 463-605): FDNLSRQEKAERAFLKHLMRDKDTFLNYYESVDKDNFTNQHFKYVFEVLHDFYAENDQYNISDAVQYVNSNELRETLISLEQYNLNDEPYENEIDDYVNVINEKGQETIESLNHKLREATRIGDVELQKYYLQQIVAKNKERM
Assay: 2D 1H-15N HSQC NMR titration
Type: binding

Nc1nc2c(ncn2COCCO)c(=O)[nH]1 [acycloguanosine]
Kd: > 4 mM

Nc1ncnc2c1ncn2[C@@H]1O[C@H](CO)[C@@H](O)[C@H]1O [adenosine]
Kd: > 4 mM

O=c1c(O)c(-c2cc(O)c(O)c(O)c2)oc2cc(O)cc(O)c12 [myricetin]
Kd: > 4 mM
